From PubChem BioAssay AID330 (DTP/NCI, 2004)
Several values for one entry are separate records, joined by “and”; a condition that tells them apart may be missing. Equal values may be shown once. Inconclusive results and toxic doses are left out. How the source made its calls: active means survival T/C of 150% or more; inactive means T/C below 125% in these data.

System: P388 leukemia ip, CD2F1 mice, survival T/C
Assay: NCI In Vivo Anticancer Drug Screen. Data for tumor model P388 Leukemia (intraperitoneal) in CD2F1 (CDF1) mice
Conditions: endpoint: median survival time, higher = longer survival
Summary of the method: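 Mice carrying the transplanted tumor received test compound or vehicle. Survival was recorded in each group, and the value is the treated-group measurement divided by that of the vehicle-treated control group.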

[1] = dose: 25.0 mg/kg/injection, schedule: Q01DX009 (ip), vehicle: water
[2] = dose: 50.0 mg/kg/injection, schedule: Q01DX009 (ip), vehicle: water
[3] = dose: 100.0 mg/kg/injection, schedule: Q01DX009 (ip), vehicle: water
[4] = dose: 200.0 mg/kg/injection, schedule: Q01DX009 (ip), vehicle: water
[5] = dose: 6.25 mg/kg/injection, schedule: Q01DX009 (ip), vehicle: distilled water + Tween-80
[6] = dose: 12.5 mg/kg/injection, schedule: Q01DX009 (ip), vehicle: distilled water + Tween-80
[7] = dose: 25.0 mg/kg/injection, schedule: Q01DX009 (ip), vehicle: distilled water + Tween-80
[8] = dose: 50.0 mg/kg/injection, schedule: Q01DX009 (ip), vehicle: distilled water + Tween-80
[9] = dose: 100.0 mg/kg/injection, schedule: Q01DX009 (ip), vehicle: distilled water + Tween-80
[10] = dose: 50.0 mg/kg/injection, schedule: Q01DX009 (ip), vehicle: Klucel (hydroxypropylcellulose) (HPC)
[11] = dose: 100.0 mg/kg/injection, schedule: Q04DX002 (ip), vehicle: saline with Tween-80
[12] = dose: 200.0 mg/kg/injection, schedule: Q04DX002 (ip), vehicle: saline with Tween-80
[13] = dose: 400.0 mg/kg/injection, schedule: Q04DX002 (ip), vehicle: saline with Tween-80
[14] = dose: 60.0 mg/kg/injection, schedule: Q01DX005 (ip), vehicle: saline with Tween-80
[15] = dose: 120.0 mg/kg/injection, schedule: Q01DX005 (ip), vehicle: saline with Tween-80
[16] = dose: 240.0 mg/kg/injection, schedule: Q01DX005 (ip), vehicle: saline with Tween-80
[17] = dose: 12.5 mg/kg/injection, schedule: Q01DX009 (ip), vehicle: saline with Tween-80
[18] = dose: 25.0 mg/kg/injection, schedule: Q01DX009 (ip), vehicle: saline with Tween-80
[19] = dose: 50.0 mg/kg/injection, schedule: Q01DX009 (ip), vehicle: saline with Tween-80
[20] = dose: 100.0 mg/kg/injection, schedule: Q01DX009 (ip), vehicle: saline with Tween-80
[21] = dose: 50.0 mg/kg/injection, schedule: Q01DX005 (ip), vehicle: saline with Tween-80
[22] = dose: 100.0 mg/kg/injection, schedule: Q01DX005 (ip), vehicle: saline with Tween-80
[23] = dose: 200.0 mg/kg/injection, schedule: Q01DX005 (ip), vehicle: saline with Tween-80
[24] = dose: 50.0 mg/kg/injection, schedule: Q01DX009 (ip), vehicle: saline
[25] = dose: 100.0 mg/kg/injection, schedule: Q01DX009 (ip), vehicle: saline
[26] = dose: 12.5 mg/kg/injection, schedule: Q01DX009 (ip), vehicle: saline

Measured: T/C

CC(N)C(=O)NC1C(O)OC(CO)C(O)C1O (centres undefined)
inactive: [1] 101 % of control | [2] 104 % of control | [3] 111 % of control | [4] 104 % of control | dose: 400.0 mg/kg/injection, schedule: Q01DX009 (ip), vehicle: water 101 % of control | dose: 800.0 mg/kg/injection, schedule: Q01DX009 (ip), vehicle: water 93 % of control

CC(=O)Nc1cccn(C)c1=O
inactive: [5] 100 % of control | [6] 100 % of control | dose: 12.5 mg/kg/injection, schedule: Q01DX009 (ip), vehicle: water 98 % of control | [7] 102 % of control | [1] 123 % of control | [8] 107 % of control | [2] 112 % of control | [9] 120 % of control | [3] 113 % of control | [4] 112 % of control

Clc1ccc2nc(Cl)c3ccccc3c2c1
inactive: dose: 0.78 mg/kg/injection, schedule: Q01DX009 (ip), vehicle: Klucel (hydroxypropylcellulose) (HPC) 88 % of control and 93 % of control | dose: 1.56 mg/kg/injection, schedule: Q01DX009 (ip), vehicle: Klucel (hydroxypropylcellulose) (HPC) 87 % of control and 94 % of control | dose: 3.13 mg/kg/injection, schedule: Q01DX009 (ip), vehicle: Klucel (hydroxypropylcellulose) (HPC) 94 % of control | dose: 6.25 mg/kg/injection, schedule: Q01DX009 (ip), vehicle: Klucel (hydroxypropylcellulose) (HPC) 120 % of control and 89 % of control and 95 % of control | dose: 25.0 mg/kg/injection, schedule: Q01DX009 (ip), vehicle: Klucel (hydroxypropylcellulose) (HPC) 89 % of control | [10] 87 % of control

Cc1ccc2c(C(=O)O)cccc2n1
inactive: [11] 97 % of control | [12] 98 % of control | [13] 95 % of control

Cc1ccc(S(=O)(=O)F)cc1C(=O)O
inactive: [14] 101 % of control | [15] 93 % of control

CN(C)c1nc(=O)c2c(ccc3ccccc32)o1
inactive: [14] 97 % of control | [15] 104 % of control | [16] 101 % of control

O=C1c2ccccc2C(O)(C#Cc2ccccc2)c2c1oc1c2ccc2ccccc21 (centres undefined)
inactive: [17] 97 % of control | [18] 92 % of control | [19] 90 % of control | [20] 108 % of control

CCN=NNc1ccc(C#N)cc1
inactive: [5] 104 % of control | [6] 109 % of control and 91 % of control | [7] 119 % of control and 97 % of control | [8] 100 % of control and 123 % of control | [9] 106 % of control

O=c1cc(O)c2ccc3ccccc3c2o1
inactive: [21] 89 % of control | [22] 87 % of control | [23] 92 % of control

O=c1c2c([nH]c3c1c1[nH]c4c(c(=O)c1c1[nH]c5c(c(=O)c31)CCCC5)CCCC4)CCCC2
inactive: dose: 25.0 mg/kg/injection, schedule: Q04DX003 (ip), vehicle: saline with Tween-80 104 % of control | dose: 50.0 mg/kg/injection, schedule: Q04DX003 (ip), vehicle: saline with Tween-80 95 % of control | dose: 100.0 mg/kg/injection, schedule: Q04DX003 (ip), vehicle: saline with Tween-80 87 % of control and 95 % of control

CCOC(=O)C1=C(Nc2ccc(Cl)cc2)C(=O)N(C(C)(C)C)C1
inactive: [14] 111 % of control | [15] 108 % of control | [16] 109 % of control

CS(C)(=O)=Nc1ccc(Br)cc1
inactive: [11] 98 % of control | [12] 98 % of control | [13] 103 % of control

O=[N+]([O-])c1ccc(C2=Nc3ccccc3N=C(c3ccccc3O)C2)cc1
inactive: dose: 0.93 mg/kg/injection, schedule: Q01DX005 (ip), vehicle: saline with Tween-80 100 % of control | dose: 1.87 mg/kg/injection, schedule: Q01DX005 (ip), vehicle: saline with Tween-80 113 % of control | dose: 3.75 mg/kg/injection, schedule: Q01DX005 (ip), vehicle: saline with Tween-80 91 % of control and 94 % of control | dose: 15.0 mg/kg/injection, schedule: Q01DX005 (ip), vehicle: saline with Tween-80 91 % of control | [16] 90 % of control

O=C1c2ccccc2-c2nc3ccccc3n21
inactive: dose: 100.0 mg/kg/injection, schedule: Q01DX001 (ip), vehicle: saline 100 % of control | [11] 100 % of control | dose: 200.0 mg/kg/injection, schedule: Q01DX001 (ip), vehicle: saline 108 % of control | [12] 106 % of control | dose: 400.0 mg/kg/injection, schedule: Q01DX001 (ip), vehicle: saline 106 % of control | [13] 100 % of control

O=P(OCC(F)(F)F)(OCC(F)(F)F)c1ccccc1
inactive: [21] 102 % of control | [22] 101 % of control | [23] 96 % of control

CC(=O)C1=CN(Cc2ccccc2)C=C(C)C1
inactive: [24] 99 % of control | [25] 96 % of control | dose: 200.0 mg/kg/injection, schedule: Q01DX009 (ip), vehicle: saline 96 % of control

CN(C)CCN(C)C
inactive: [20] 100 % of control | dose: 200.0 mg/kg/injection, schedule: Q01DX009 (ip), vehicle: saline with Tween-80 95 % of control

NNc1nn2cnnc2c2ccccc12
inactive: dose: 6.25 mg/kg/injection, schedule: Q04DX002 (ip), vehicle: saline 100 % of control and 96 % of control | dose: 12.5 mg/kg/injection, schedule: Q04DX002 (ip), vehicle: saline 98 % of control and 99 % of control and 96 % of control | dose: 25.0 mg/kg/injection, schedule: Q04DX002 (ip), vehicle: saline 100 % of control and 122 % of control and 97 % of control | dose: 50.0 mg/kg/injection, schedule: Q04DX002 (ip), vehicle: saline 101 % of control and 104 % of control and 94 % of control | dose: 400.0 mg/kg/injection, schedule: Q04DX002 (ip), vehicle: saline 88 % of control

COC(=O)c1cc2cc3c(c(O)c2c(=O)o1)OC1(Cc2c(O)c4c(c(O)c2O1)C(=O)C(OC)CC4=O)CC3O (centres undefined)
inactive: [17] 93 % of control | [18] 100 % of control | [19] 116 % of control

CCN(CC)CCN(CC)CC.O.[Cu+2].[O-][Cl+3]([O-])([O-])O
inactive: dose: 3.12 mg/kg/injection, schedule: Q01DX009 (ip), vehicle: saline 112 % of control | dose: 6.25 mg/kg/injection, schedule: Q01DX009 (ip), vehicle: saline 100 % of control | [26] 114 % of control

Cc1cc(=O)n2c(nc3ccccc32)s1
inactive: [10] 109 % of control | dose: 100.0 mg/kg/injection, schedule: Q01DX009 (ip), vehicle: Klucel (hydroxypropylcellulose) (HPC) 96 % of control | dose: 200.0 mg/kg/injection, schedule: Q01DX009 (ip), vehicle: Klucel (hydroxypropylcellulose) (HPC) 109 % of control

CCOC(=O)COc1cc2c(cc1Cc1ccc(OC)cc1)OCO2
inactive: [21] 97 % of control | [22] 92 % of control

FC(F)(F)c1ccccc1NC(=S)SCc1ccc2c(c1)OCO2
inactive: [26] 97 % of control | dose: 25.0 mg/kg/injection, schedule: Q01DX009 (ip), vehicle: saline 90 % of control | [24] 100 % of control

COc1ccc2c(c1)C[N+](C)(CCc1ccccc1)[B-]O2 (centres undefined)
inactive: dose: 50.0 mg/kg/injection, schedule: Q01DX005 (ip), vehicle: saline + Tween-80 + alcohol 91 % of control | dose: 100.0 mg/kg/injection, schedule: Q01DX005 (ip), vehicle: saline + Tween-80 + alcohol 93 % of control

OCCSC(=S)Nc1ccc(Cl)c(Cl)c1
inactive: [24] 96 % of control | [25] 103 % of control

OC(Cc1cnc2ccccc2c1)(c1ccccc1)c1ccccc1
inactive: dose: 50.0 mg/kg/injection, schedule: Q04DX002 (ip), vehicle: saline with Tween-80 111 % of control | [11] 96 % of control | [12] 88 % of control

Cc1[nH]nc2c(Cc3ccc([N+](=O)[O-])cc3)n[nH]c(=O)c12
inactive: dose: 100.0 mg/kg/injection, schedule: Q04DX002 (ip), vehicle: Klucel (hydroxypropylcellulose) (HPC) 92 % of control | dose: 200.0 mg/kg/injection, schedule: Q04DX002 (ip), vehicle: Klucel (hydroxypropylcellulose) (HPC) 87 % of control | dose: 400.0 mg/kg/injection, schedule: Q04DX002 (ip), vehicle: Klucel (hydroxypropylcellulose) (HPC) 92 % of control
